Source: US20230017532A1 (Hoffmann-La Roche Inc., priority 2018, published 2023)
Counter-ions that a name gives are not always drawn.

Tested on: Acinetobacter baumannii ATCC17978
Assay: Antimicrobial susceptibility testing: 90% growth inhibitory concentration (IC90) determination, Iso-Sensitest broth, OD 600 nm
Format: cell-based
Conditions: Acinetobacter baumannii, ATCC17978, 16 h, 90% growth inhibitory concentration, Acinetobacter baumannii ATCC17978, Iso-Sensitest broth, OD 600 nm over 16 h; read-out: ATCC 17978 IC90
Method in brief: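 Growth of bacteria (~5×10^5 CFU/ml, Iso-Sensitest medium, 35±2 °C) was followed by OD at 600 nm at 20-min intervals over 16 h against a 10-point twofold compound series (e.g. 50–0.097 μM final). Concentration giving 90% inhibition in log phase was reported.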

| IC90 [µM] | SMILES |
| --- | --- |
| 0.28 | Cc1cc(Nc2nccn3c(-c4ccc(OC(F)F)cc4)cnc23)ccc1C(=O)NCCOCCNC=O [Example 94, 4-[[3-[4-(difluoromethoxy)phenyl]imidazo [1,2-a]pyrazin-8-yl]amino]-N-[2-(2-formamidoethoxy)ethyl]-2-methylbenzamide] |
| 0.28 | Cc1cc(Nc2nccn3c(-c4ccc(OC(F)F)cc4)cnc23)ccc1C(=O)NCCOCCN1CCCCC1 [Example 95, 4-[[3-[4-(difluoromethoxy)phenyl]imidazo [1,2-a]pyrazin-8-yl]amino]-2-methyl-N-[2-(2-piperidin-1-ylethoxy)ethyl] benzamide] |
| 0.31 | Cc1cc(Nc2nccn3c(-c4ccc(OC(F)F)cc4)cnc23)ccc1C(=O)NCCOCCN(C)C [Example 96, 4-[[3-[4-(difluoromethoxy)phenyl]imidazo [1,2-a]pyrazin-8-yl]amino]-N-[2-[2-(dimethylamino)ethoxy]ethyl]-2-methyl-benzamide] |
| 0.37 | Cc1cc(Nc2nccn3c(-c4ccc(OC(F)F)c(F)c4)cnc23)ccc1C(=O)NCCOCCN [Example 97, N-[2-(2-aminoethoxy)ethyl]-4-[[3-[4-(difluoro-methoxy)-3-fluorophenyl]imidazo[1,2-a]pyrazin-8-yl]amino]-2-methylbenzamide; hydrochloride] |
| 0.42 | CC(=O)NCCOCCNC(=O)c1ccc(Nc2nccn3c(-c4ccc(OC(F)F)cc4)cnc23)cc1C [Example 98] |
| 0.44 | Cc1cc(Nc2nccn3c(-c4ccc(Cl)cc4)cnc23)ccc1C(=O)NCCOCCN [Example 99, N-[2-(2-aminoethoxy)ethyl]-4-[[3-(4-chlorophenyl)imidazo[1,2-a]pyrazin-8-yl]amino]-2-methylbenzamide; hydrochloride] |
| 0.44 | Cc1cc(Nc2nccn3c(-c4ccc(OCC#CCOCCN)cc4)cnc23)ccc1C(=O)NCCOCCN [Example 100, 4-[[3-[4-[4-(2-aminoethoxy)but-2-ynoxy]phenyl]imidazo[1,2-a]pyrazin-8-yl]amino]-N-[2-(2-aminoethoxy)ethyl]-2-methylbenzamide; formic acid] |
| 0.44 | Cc1cc(Nc2nccn3c(-c4ccc(OC(F)F)cc4)cnc23)ccc1C(=O)NCCNCCN [Example 101, N-[2-(2-aminoethylamino)ethyl]-4-[[3-[4-(difluoromethoxy)phenyl]imidazo [1,2-a]pyrazin-8-yl]amino]-2-methylbenzamide; hydrochloride] |
| 0.46 | Cc1cc(Nc2nccn3c(-c4ccc(OC(F)F)cc4)cnc23)ccc1C(=O)NCCOCCNS(C)(=O)=O [Example 102, 4-[[3-[4-(difluoromethoxy)phenyl]imidazo [1,2-a]pyrazin-8-yl]amino]-N-[2-[2-(methane-sulfonamido)ethoxy]ethyl]-2-methylbenzamide] |
| 0.48 | COc1ccc(-c2cnc3c(Nc4ccc(C(=O)NCCNCCN)c(C)c4)nccn23)cc1 [Example 104, N-[2-(2-aminoethylamino)ethyl]-4-[[3-(4-methoxyphenyl)imidazo[1,2-a]pyrazin-8-yl]amino]-2-methylbenzamide; hydrochloride] |
| 0.48 | COc1ccc(-c2cnc3c(Nc4ccc(C(=O)NCCOCC(=O)N5CCNCC5)c(C)c4)nccn23)cc1F [Example 105, 4-[[3-(3-fluoro-4-methoxyphenyl)imidazo[1,2-a]pyrazin-8-yl]amino]-2-methyl-N-[2-(2-oxo-2-piperazin-1-ylethoxy)ethyl] benzamide] |
| 0.48 | COc1ccc(-c2cnc3c(Nc4ccc(C(=O)NCCOCCN5CCOCC5)c(C)c4)nccn23)cc1 [Example 106, 4-[[3-(4-methoxyphenyl)imidazo[1,2-a]pyrazin-8-yl]amino]-2-methyl-N-[2-(2-morpholin-4-ylethoxy)ethyl] benzamide] |
| 0.5 | COc1ccc(-c2cnc3c(Nc4ccc(C(=O)NCCOCCn5ccnn5)c(C)c4)nccn23)cc1 [Example 107, 4-[[3-(4-methoxyphenyl)imidazo[1,2-a]pyrazin-8-yl]amino]-2-methyl-N-[2-[2-(triazol-1-yl)ethoxy]ethyl] benzamide] |
| 0.52 | COc1ccc(-c2cnc3c(Nc4ccc(C(=O)N(C)CCOCCN5CC6(COC6)C5)c(C)c4)nccn23)cc1F [Example 108, 4-[[3-(3-fluoro-4-methoxyphenyl)imidazo[1,2-a]pyrazin-8-yl]amino]-N,2-dimethyl-N-[2-[2-(2-oxa-6-azaspiro [3.3]heptan-6-yl)ethoxy]ethyl] benzamide] |
| 0.53 | COc1ccc(-c2cnc3c(Nc4ccc(C(=O)NCCOCCNS(C)(=O)=O)c(C)c4)nccn23)cc1 [Example 109, N-[2-[2-(methane-sulfonamido)ethoxy]ethyl]-4-[[3-(4-methoxyphenyl)imidazo[1,2-a]pyrazin-8-yl]amino]-2-methylbenzamide] |
| 0.53 | COc1ccc(-c2cnc3c(Nc4ccc(C(=O)N(C)CCOCCN5CCS(=O)(=O)CC5)c(C)c4)nccn23)cc1F [Example 110, N-[2-[2-(1,1-dioxo-1,4-thiazinan-4-yl)ethoxy]ethyl]-4-[[3-(3-fluoro-4-methoxyphenyl)imidazo[1,2-a]pyrazin-8-yl]amino]-N,2-dimethyl-benzamide] |

| IC90 [µM] | SMILES |
| --- | --- |
| 0.56 | COc1ccc(-c2cnc3c(Nc4ccc(C(=O)NCCOCCN5CCOC(CN)C5)c(C)c4)nccn23)cc1F (stereo not shown) [Example 111, N-[2-[2-[2-(aminomethyl)morpholin-4-yl]ethoxy]ethyl]-4-[[3-(3-fluoro-4-methoxyphenyl)imidazo[1,2-a]pyrazin-8-yl]amino]-2-methylbenzamide; hydrochloride] |
| 0.57 | COc1ccc(-c2cnc3c(Nc4ccc(C(=O)NCCOCC(=O)N5CCNCC5)c(C)c4)nccn23)cc1 [Example 112, 4-[[3-(4-methoxyphenyl)imidazo[1,2-a]pyrazin-8-yl]amino]-2-methyl-N-[2-(2-oxo-2-piperazin-1-ylethoxy)ethyl] benzamide] |
| 0.58 | COc1ccc(-c2cnc3c(Nc4ccc(C(=O)NCCOCCN5CCNCC5)c(C)c4)nccn23)cc1F [Example 113, 4-[[3-(3-fluoro-4-methoxyphenyl)imidazo[1,2-a]pyrazin-8-yl]amino]-2-methyl-N-[2-(2-piperazin-1-ylethoxy)ethyl] benzamide; hydrochloride] |
| 0.58 | Cc1cc(Nc2nccn3c(-c4ccc(OC(F)F)cc4)cnc23)ccc1C(=O)NCCOCCN1CC2(COC2)C1 [Example 114, 4-[[3-[4-(difluoromethoxy)phenyl]imidazo [1,2-a]pyrazin-8-yl]amino]-2-methyl-N-[2-[2-(2-oxa-6-azaspiro [3.3]heptan-6-yl)ethoxy]ethyl] benzamide] |
| 0.59 | COc1ccc(-c2cnc3c(Nc4ccc(C(=O)NCCOCC(=O)N5CCN(C)CC5)c(C)c4)nccn23)cc1 [Example 115] |
| 0.59 | COc1ccc(-c2cnc3c(Nc4ccc(C(=O)NCCOCCO)c(C)c4)nccn23)cc1 [Example 116, N-[2-(2-hydroxyethoxy)ethyl]-4-[[3-(4-methoxyphenyl)imidazo[1,2-a]pyrazin-8-yl]amino]-2-methylbenzamide] |
| 0.59 | Cc1cc(Nc2nccn3c(-c4ccc(Cl)cc4)cnc23)ccc1C(=O)NCCNCCN [Example 117, N-[2-(2-aminoethylamino)ethyl]-4-[[3-(4-chlorophenyl)imidazo[1,2-a]pyrazin-8-yl]amino]-2-methylbenzamide; hydrochloride] |
| 0.6 | COc1ccc(-c2cnc3c(Nc4ccc(C(=O)NCCCOCC(=O)N5CCNCC5)c(C)c4)nccn23)cc1F [Example 118, 4-[[3-(3-fluoro-4-methoxyphenyl)imidazo[1,2-a]pyrazin-8-yl]amino]-2-methyl-N-[3-(2-oxo-2-piperazin-1-ylethoxy)propyl] benzamide; hydrochloride] |
| 0.61 | Cc1cc(Nc2nccn3c(-c4ccc(OC(F)F)cc4)cnc23)ccc1C(=O)NCCOCCNC(=O)CO [Example 119, 4-[[3-[4-(difluoromethoxy)phenyl]imidazo [1,2-a]pyrazin-8-yl]amino]-N-[2-[2-[(2-hydroxyacetyl)amino]ethoxy]ethyl]-2-methylbenzamide] |
| 0.62 | COc1ccc(-c2cnc3c(Nc4ccc(C(=O)NCCOCCNC(C)=O)c(C)c4)nccn23)cc1 [Example 120, N-[2-(2-acetamidoethoxy)ethyl]-4-[[3-(4-methoxyphenyl)imidazo[1,2-a]pyrazin-8-yl]amino]-2-methylbenzamide] |
| 0.62 | COc1ccc(-c2cnc3c(Nc4ccc(C(=O)NCCOCCN5CCN(C)CC5)c(C)c4)nccn23)cc1 [Example 121, 4-[[3-(4-methoxyphenyl)imidazo[1,2-a]pyrazin-8-yl]amino]-2-methyl-N-[2-[2-(4-methylpiperazin-1-yl)ethoxy]ethyl] benzamide] |
| 0.62 | Cc1cc(Nc2nccn3c(-c4ccc(Cl)c(F)c4F)cnc23)ccc1C(=O)NCCNCCN [Example 122, N-[2-(2-aminoethylamino)ethyl]-4-[[3-(4-chloro-2,3-difluorophenyl)imidazo[1,2-a]pyrazin-8-yl]amino]-2-methylbenzamide; hydrochloride] |
| 0.63 | Cc1cc(Nc2nccn3c(-c4ccc(OCC#CCN)cc4)cnc23)ccc1C(=O)NCCOCCN [Example 123, 4-[[3-[4-(4-aminobut-2-ynoxy)phenyl]imidazo[1,2-a]pyrazin-8-yl]amino]-N-[2-(2-aminoethoxy)ethyl]-2-methylbenzamide; formic acid] |
| 0.64 | COc1ccc(-c2cnc3c(Nc4ccc(C(=O)NCCCOCC(=O)N5CCOC(CN)C5)c(C)c4)nccn23)cc1F (stereo not shown) [Example 124, N-[3-[2-[2-(aminomethyl)morpholin-4-yl]-2-oxoethoxy]propyl]-4-[[3-(3-fluoro-4-methoxyphenyl)imidazo[1,2-a]pyrazin-8-yl]amino]-2-methylbenzamide; hydrochloride] |
| 0.67 | Cc1cc(Nc2nccn3c(-c4ccc(OC(F)F)cc4)cnc23)ccc1C(=O)N(C)CCOCCN1CCNCC1 [Example 126, 4-[[3-[4-(difluoromethoxy)phenyl]imidazo [1,2-a]pyrazin-8-yl]amino]-N,2-dimethyl-N-[2-(2-piperazin-1-ylethoxy)ethyl] benzamide] |
